In data set [1] the test system is Staphylococcus haemolyticus. Nature of the data set: MIC (broth microdilution) of peptides, S. haemolyticus. The settings on record: mode of three biological replicates. The class given is cell-based. How it is done:
(§1) Minimal inhibitory concentration (MIC) against planktonic bacteria: The MIC of the synthetic peptides was determined in Mueller-Hinton broth (MHB) using the broth microdilution method described previously [Wiegand, I., Hilpert, K., & Hancock, R. E. (2008). Agar and broth dilution methods to determine the minimal inhibitory concentration (MIC) of antimicrobial substances. Nature Protocols, 3(2), 163-175]. Briefly, 10 μl of a 10× concentrated peptide solution was placed in the bottom of a well in a 96-well polypropylene round bottom plate (Corning Inc.). A bacterial suspension of ~5×10^5 CFU/ml was prepared from an overnight culture and 90 μl of this was added to each well. […] Bacteria tested included P. aeruginosa PAO1, MRSA USA300 LAC, Staphylococcus haemolyticus, Staphylococcus epidermidis, Klebsiella pneumoniae and Streptococcus salivarius.
(§2) Finally, the AB103-D derivatives that were the least aggregation prone and which produced the lowest toxic effects in vivo were evaluated for their direct antibacterial activity towards several pathogens of clinical relevance using a standard minimum inhibitory concentration (MIC) assay [Wiegand, I., Hilpert, K., & Hancock, R. E. (2008). Agar and broth dilution methods to determine the minimal inhibitory concentration (MIC) of antimicrobial substances. Nature Protocols, 3(2), 163-175]. Specifically, peptides AB110-D, AB111-D, AB114-D and AB115-D were tested against P. aeruginosa PAO1, MRSA USA 300, Staphylococcus haemolyticus, Staphylococcus epidermidis, Klebsiella pneumoniae and Streptococcus salivarius and compared against the antibacterial activity of DJK-5 and AB103-D (Table 7). Overall, the antibacterial potency of all of the AB103-D derivatives was stronger than that seen for DJK-5, particularly in the case of the Gram-negative pathogens P. aeruginosa and K. pneumoniae. […]
(In general: Broth dilution looks for growth in wells or tubes with falling amounts of substance.)

The next data set has as its system Klebsiella pneumoniae. Nature of the data set: MIC (broth microdilution) of peptides, K. pneumoniae. The note with it: mode of three biological replicates. The class given is cell-based. As for the experimental part:
as §1, §2

The next data set relates to Streptococcus salivarius. The experiment in a line: MIC (broth microdilution) of peptides, S. salivarius. The class given is cell-based. The settings on record: mode of three biological replicates. As for the experimental part:
as §1, §2

The test system of data set [2] is MRSA USA300. The experiment in a line: Biofilm inhibition (at least 80%), MRSA. The class given is cell-based, methicillin resistant Staphylococcus aureus. The settings on record: n = 4, 10% TSB + 0.1% glucose, 18-24 hours, crystal violet.
Data set [3] deals with Klebsiella pneumonia KPLN649. The experiment in a line: Biofilm inhibition (at least 80%), K. pneumonia. The class given is cell-based. The settings on record: K. pneumoniae KPLN649; n = 3; BM2 minimal media; 48 hours; crystal violet.
For data set [4], the system named is Acinetobacter baumannii Ab5075. Nature of the data set: Biofilm inhibition (at least 80%), A. baumannii. The class given is cell-based. The settings on record: n = 4, BM2 minimal media, 18-24 hours, crystal violet.
Another data set deals with P. aeruginosa PAO1. The experiment in a line: Biofilm inhibition (at least 80%), P. aeruginosa. The class given is cell-based, Pseudomonas aeruginosa. The note with it: n = 4, BM2 minimal media, 18-24 hours, crystal violet.
The test system of data set [5] is Enterobacter cloacae 218R1. Nature of the data set: Biofilm inhibition (at least 80%), E. cloacae. The class given is cell-based. The note with it: E. cloacae 218R1; n = 3; BM2 minimal media; 18-24 hours; crystal violet.
The test system of a further data set is E. coli O157:H7. Nature of the data set: Biofilm inhibition (at least 80%), E. coli. The class given is cell-based, Escherichia coli. The note with it: n = 3, BM2 minimal media, 18-24 hours, crystal violet.
For data set [6], the system named is P. aeruginosa LESB58. The experiment in a line: Murine model of abscess infections. The class given is in vivo, murine; Pseudomonas aeruginosa.
A short description of data set [7]: Peptide aggregation in RPMI + 10% FBS with PBMCs (microscopy). The class given is physicochemical. The settings on record: 50 μg/ml, overnight. The procedure, abridged: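 Peptides added to human PBMCs in RPMI with 10% FBS, incubated overnight at 37 °C, 5% CO2; aggregation assessed qualitatively by inverted light microscopy at 10× magnification.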
Data set [8] concerns MRSA USA300. The experiment in a line: Murine sinusitis model, MRSA. The class given is in vivo, mouse; methicillin resistant Staphylococcus aureus. From the text: (§3) FIGS. 15A-15I show peptides AB101-D, AB102-D and AB103-D compared to DJK5 in a murine sinusitis model of bacterial infections. MRSA USA300, nasal cavity (FIG. 15A) P. aeruginosa LESB58 (FIG. 15B and FIG. 15C, nasal cavity); MRSA USA300, lung tissue (FIG. 15D) P. aeruginosa LESB58 (FIG. 15E and FIG. 15F, lung tissue); and MRSA USA300, weight change (FIG. 15G) P. aeruginosa LESB58 (FIG. 15H and FIG. 15I, weight change).
(§4) A murine sinusitis model of bacterial infections in the nasal cavity of mice [Alford et al. (2021). Murine model of sinusitis infection for screening antimicrobial and immunomodulatory therapies. Frontiers in Cellular and Infection Microbiology., 11, 621081] was used to determine the efficacy of D-amino acid peptides AB101-D, AB102-D and AB103-D compared to DJK5. […]. Treatment was applied either as dropwise administration of a peptide solution (20 μl) to the infected naris of a mouse (FIGS. 15A, 15B, 15D, 15E, 15G, 15H) or peptide was delivered using a Respimat® inhaler device (FIGS. 15C, 15F, 15I). Mice were monitored and weighed once daily for up to three days then euthanized prior to collection of nasal lavage fluid and lung tissue for bacterial enumeration. The limit of detection is shown by the dotted line at log CFU=2. […] Accordingly, the results indicated enhanced efficacy of D-amino acid peptides AB101-D, AB102-D and AB103-D compared to DJK5 in this murine model.

Data set [9] has as its system P. aeruginosa LESB58. Nature of the data set: Murine sinusitis model, P. aeruginosa. The class given is in vivo, mouse; Pseudomonas aeruginosa.
Text: as §3, §4

Another data set relates to PAO1 preformed biofilms. The settings on record: for IC50: read-out: Biofilm Eradication IC50, PAO1, 24-hr preformed biofilms treated overnight, TTC.

Converted amounts (≈) assume the structure as drawn. Where a SMILES comes first, the peptide text is derived from it. [ ]: non-standard residue; d: D form.

As to `CC[C@@H](C)[C@@H](NC(=O)[C@@H](C)NC(=O)[C@@H](CCCNC(=N)N)NC(=O)[C@@H](Cc1c[nH]c2ccccc12)NC(=O)[C@@H](CCC(N)=O)NC(=O)[C@H](NC(=O)[C@@H](CCCNC(=N)N)NC(=O)[C@H](NC(=O)[C@H](NC(=O)[C@@H](CCCNC(=N)N)NC(=O)[C@H](NC(=O)[C@H](N)CCCNC(=N)N)C(C)C)C(C)C)[C@H](C)CC)C(C)C)C(N)=O` [AB103-D, rvrvirvqwrai-NH2] (H-[dR][dV][dR][dV][dI][dR][dV][dQ][dW][dR][dA][dI]-NH2), the MIC (in data set [1]; in the data set on Klebsiella pneumoniae; in the data set with Streptococcus salivarius) was 0.8 µg/mL (≈ 0.516 µM) each time. The “Peptide/Antibiotic Concentration where at least 80% of biofilm growth was inhibited” value in the data set on MRSA USA300 [2] came out at 0.5 µg/mL; in data set [3] it was 2 µg/mL; in [4], 1 µg/mL; with P. aeruginosa PAO1, 2 µg/mL; in [5], 1 µg/mL; in the data set with E. coli O157:H7 it was 1 µg/mL. Besides, the Abscess size entry with P. aeruginosa LESB58 [6] is listed as “reduced abscess size”. The “Decrease in abscess formation” value with P. aeruginosa LESB58 [6] was determined as 77%. Besides, in data set [7], the Peptide aggregation entry is “some small aggregates”. For the same compound, the “Bacteria in nasal cavity and lungs” value in the data set with MRSA USA300 [8] (MRSA USA300, 0.1 mg dose, compared to DJK5) is “reduced the amount of bacteria in the nasal cavity and lungs of mice much more than DJK5 treatment”; with P. aeruginosa LESB58 [9] (P. aeruginosa LESB58, 0.1 mg dose, compared to DJK5), “reduced the amount of bacteria in the nasal cavity and lungs of mice much more than DJK5 treatment”. For the same compound, the “Enhanced antibiofilm eradication activity” value with PAO1 preformed biofilms (P. aeruginosa, compared with DJK5) is listed as > 2 fold. Besides, the IC50 in the data set with PAO1 preformed biofilms was 1700 nM.
For `CC[C@@H](C)[C@@H](NC(=O)[C@@H](C)NC(=O)[C@@H](CCCNC(=N)N)NC(=O)[C@@H](Cc1c[nH]c2ccccc12)NC(=O)[C@@H](CCC(N)=O)NC(=O)[C@H](N)C(C)C)C(=O)N[C@H](CCCNC(=N)N)C(=O)N[C@@H](C(=O)N[C@H](CCCNC(=N)N)C(=O)N[C@@H](C(=O)N[C@@H](C(=O)N[C@H](CCCNC(=N)N)C(N)=O)[C@H](C)CC)C(C)C)C(C)C` [DJK5, vqwrairvrvir-NH2] (H-[dV][dQ][dW][dR][dA][dI][dR][dV][dR][dV][dI][dR]-NH2), the values for the minimum inhibitory concentration (MIC) (in [1]; in the data set with Klebsiella pneumoniae; against Streptococcus salivarius) were 0.8 µg/mL (≈ 0.516 µM), 3 µg/mL (≈ 1.93 µM) and 0.8 µg/mL (≈ 0.516 µM), respectively. Further, the “Peptide/Antibiotic Concentration where at least 80% of biofilm growth was inhibited” value in the data set on MRSA USA300 [2] turned out to be 1 µg/mL; in [3] it was 8 µg/mL; in [4] it was 2 µg/mL; with P. aeruginosa PAO1, 8 µg/mL; in data set [5], 2 µg/mL; in the data set on E. coli O157:H7, 1 µg/mL. The “Decrease in abscess formation” value with P. aeruginosa LESB58 [6] came to 54%. For the same compound, in data set [7], the Peptide aggregation entry was “No appreciable aggregation”. The Weight loss entry in the data set on MRSA USA300 [8] (MRSA USA300 infected mice) and in the data set on P. aeruginosa LESB58 [9] (P. aeruginosa LESB58 infected mice) was “did not prevent weight loss” in each case. In addition, in the data set with PAO1 preformed biofilms, the half-maximal inhibitory concentration (IC50) came out at 3800 nM.

Usually MIC stands for the smallest concentration in the dilution series that meets the test's criterion for growth inhibition. Read a high MIC as a need for much substance. As a reminder, the IC50 is the concentration that inhibits the measured activity by half.

The values above are taken from patent US20260374818A1, “CATIONIC PEPTIDES WITH BROAD SPECTRUM ACTIVITY” (priority 2023, published 2026).
